# Key:
# human P2Y12 receptor = human P2Y12 receptor (Homo sapiens, UniProt Q9H244); assay: Human P2Y12 recombinant cell membrane binding assay with 33P 2MeS-ADP; settings: competition against 33P 2MeS-ADP, membranes of CHO cells with recombinant human P2Y12 receptor
# Method in brief: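 Competition binding against radiolabeled 2MeS-ADP (1.61 nM as added) on membranes from recombinant human P2Y12 CHO cells, 20 min RT after 15 min compound preincubation, pH 7.4. Filtration then scintillation counting; compounds tested in triplicate from 10 μM final, five-fold dilutions, curve fit with plate-defined min/max.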
# [1] = tested on: human platelet rich plasma; assay: Inhibition of human platelet aggregation, 96-well assay; format: cell-based; settings: Homo sapiens, Platelet, 20 min
# Method in brief: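 ADP-induced aggregation read as 650 nm absorbance every minute for 20 min at 37 °C, with shaking between reads. PRP (~3×E8 platelets/ml, diluted with PPP, ACD-A blood from healthy volunteers) was exposed to compound for 5 min before adding a 40 μM ADP stock (15 μl into 150 μl).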
# Sequence of human P2Y12 receptor (Q9H244 whole entry): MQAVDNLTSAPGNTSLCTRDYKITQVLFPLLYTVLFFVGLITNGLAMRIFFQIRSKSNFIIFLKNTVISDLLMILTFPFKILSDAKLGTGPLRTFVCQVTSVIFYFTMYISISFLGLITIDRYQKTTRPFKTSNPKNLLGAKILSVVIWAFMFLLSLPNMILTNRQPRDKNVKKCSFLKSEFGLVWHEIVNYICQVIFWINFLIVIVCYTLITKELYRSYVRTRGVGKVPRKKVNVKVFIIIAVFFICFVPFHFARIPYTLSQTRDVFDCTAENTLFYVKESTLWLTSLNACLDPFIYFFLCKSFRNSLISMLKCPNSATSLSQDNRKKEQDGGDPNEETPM
IC50 (human P2Y12 receptor) [nM],IC50 [1] [nM],Compound
20,70,"CCOC(=O)N1CCN(C(=O)[C@H](CCC(=O)O)NC(=O)c2cc(OCC(=O)N3CCC[C@H]3C(=O)NC3CCC3)n(-c3ccccc3)n2)[C@H](C)C1 [Example 150, (R)-4-[(S)-4-Carboxy-2-({5-[2-((S)-2-cyclobutylcarbamoyl-pyrrolidin-1-yl)-2-oxo-ethoxy]-1-phenyl-1H-pyrazole-3-carbonyl}-amino)-butyryl]-3-methyl-piperazine-1-carboxylic acid ethyl ester]"
15,120,"O=C(O)CC[C@H](NC(=O)c1cc(OCC(=O)N2CCC[C@H]2C(=O)NC2CCC2)n(-c2ccccc2)n1)C(=O)N1CCN(C(=O)OCc2ccccc2)CC1 [Example 159, 4-[(S)-4-Carboxy-2-({5-[2-((S)-2-cyclobutylcarbamoyl-pyrrolidin-1-yl)-2-oxo-ethoxy]-1-phenyl-1H-pyrazole-3-carbonyl}-amino)-butyryl]-piperazine-1-carboxylic acid benzyl ester]"
33,240,"O=C(O)CC[C@H](NC(=O)c1cc(OCC(=O)N2CCC[C@H]2C(=O)NCC2CC2)n(-c2ccccc2)n1)C(=O)N1CCN(C(=O)OCc2ccccc2)CC1 [Example 161, 4-[(S)-4-Carboxy-2-({5-[2-((S)-2-(cyclopropylmethyl-carbamoyl)-pyrrolidin-1-yl)-2-oxo-ethoxy]-1-phenyl-1H-pyrazole-3-carbonyl}-amino)-butyryl]-piperazine-1-carboxylic acid benzyl ester]"
13,10,"O=C(O)CC[C@H](NC(=O)c1cc(OCC(=O)N2CCC[C@H]2C(=O)NC2CCC2)n(-c2ccccc2)n1)C(=O)N1CCN(C(=O)OC2CCC2)CC1 [Example 163, 4-[(S)-4-Carboxy-2-({5-[2-((S)-2-cyclobutylcarbamoyl-pyrrolidin-1-yl)-2-oxo-ethoxy]-1-phenyl-1H-pyrazole-3-carbonyl}-amino)-butyryl]-piperazine-1-carboxylic acid cyclobutyl ester]"
81,40,"CCOC(=O)N1CCN(C(=O)[C@H](CCC(=O)O)NC(=O)c2cc(OCC(=O)N3CC(F)(F)C[C@H]3C(=O)NC3CCC3)n(-c3ccccc3)n2)CC1 [Example 164, 4-[(S)-4-Carboxy-2-({5-[2-((S)-2-cyclobutylcarbamoyl-4,4-difluoro-pyrrolidin-1-yl)-2-oxo-ethoxy]-1-phenyl-1H-pyrazole-3-carbonyl}-amino)-butyryl]-piperazine-1-carboxylic acid ethyl ester]"
98,440,"CCOC(=O)N1CCN(C(=O)[C@H](CCNC(=O)C2CC2(F)F)NC(=O)c2cc(OCC(=O)N3CCC[C@H]3C(=O)NC3CCC3)n(-c3ccccc3)n2)CC1 (stereo partly drawn) [Example 187, 4-{(S)-2-({5-[2-((S)-2-Cyclobutylcarbamoyl-pyrrolidin-1-yl)-2-oxo-ethoxy]-1-phenyl-1H-pyrazole-3-carbonyl}-amino)-4-[(2,2-difluoro-cyclopropanecarbonyl)-amino]-butyryl}-piperazine-1-carboxylic acid ethyl ester]"
10,490,"CCOC(=O)N1CCN(C(=O)[C@H](CCNS(=O)(=O)C(F)(F)F)NC(=O)c2cc(OCC(=O)N3CCC[C@H]3C(=O)NC3CCC3)n(-c3ccccc3)n2)CC1 [Example 188, 4-[(S)-2-({5-[2-((S)-2-Cyclobutylcarbamoyl-pyrrolidin-1-yl)-2-oxo-ethoxy]-1-phenyl-1H-pyrazole-3-carbonyl}-amino)-4-trifluoromethanesulfonylamino-butyryl]-piperazine-1-carboxylic acid ethyl ester]"
35,350,"COC(=O)CC[C@H](NC(=O)c1cc(OCC(=O)N2CCC[C@H]2C(=O)NC2CCC2)n(-c2ccccc2)n1)C(=O)N1CCN(C(=O)OC2CCC2)CC1 [Example 189, 4-[(S)-2-({5-[2-((S)-2-Cyclobutylcarbamoyl-pyrrolidin-1-yl)-2-oxo-ethoxy]-1-phenyl-1H-pyrazole-3-carbonyl}-amino)-4-methoxycarbonyl-butyryl]-piperazine-1-carboxylic acid cyclobutyl ester]"
6,380,"CCCCOC(=O)N1CCN(C(=O)[C@H](CCC(=O)OC)NC(=O)c2cc(OCC(=O)N3CCC[C@H]3C(=O)NC3CCC3)n(-c3ccccc3)n2)CC1 [Example 191, 4-[(S)-2-({5-[2-((S)-2-Cyclobutylcarbamoyl-pyrrolidin-1-yl)-2-oxo-ethoxy]-1-phenyl-1H-pyrazole-3-carbonyl}-amino)-4-methoxycarbonyl-butyryl]-piperazine-1-carboxylic acid butyl ester]"
131,190,"O=C(NCC(=O)N1CCN(C(=O)OC2CCC2)CC1)c1cc(OCC(=O)N2CCC[C@H]2C(=O)NC2CCC2)n(-c2ccccc2)n1 [Example 192, 4-[2-({5-[2-((S)-2-Cyclobutylcarbamoyl-pyrrolidin-1-yl)-2-oxo-ethoxy]-1-phenyl-1H-pyrazole-3-carbonyl}-amino)-acetyl]-piperazine-1-carboxylic acid cyclobutyl ester]"
116,720,"CCOCCOC(=O)CC[C@H](NC(=O)c1cc(OCC(=O)N2CCC[C@H]2C(=O)NC2CCC2)n(-c2ccccc2)n1)C(=O)N1CCN(C(=O)OCC)CC1 [Example 198, 4-[(S)-2-({5-[2-((S)-2-Cyclobutylcarbamoyl-pyrrolidin-1-yl)-2-oxo-ethoxy]-1-phenyl-1H-pyrazole-3-carbonyl}-amino)-4-(2-ethoxy-ethoxycarbonyl)-butyryl]-piperazine-1-carboxylic acid ethyl ester]"
139,920,"CCOC(=O)N1CCN(C(=O)[C@H](CCC(=O)OCC2CCCO2)NC(=O)c2cc(OCC(=O)N3CCC[C@H]3C(=O)NC3CCC3)n(-c3ccccc3)n2)CC1 (stereo partly drawn) [Example 199, 4-[(S)-2-({5-[2-((S)-2-Cyclobutylcarbamoyl-pyrrolidin-1-yl)-2-oxo-ethoxy]-1-phenyl-1H-pyrazole-3-carbonyl}-amino)-4-(tetrahydro-furan-2-ylmethoxycarbonyl)-butyryl]-piperazine-1-carboxylic acid ethyl ester]"
187,410,"CCCOC(=O)N1CCN(C(=O)[C@@H](C)NC(=O)c2cc(OCC(=O)N3CCC[C@H]3C(=O)NC3CCC3)n(-c3ccccc3)n2)CC1 [Example 206, 4-[(R)-2-({5-[2-((S)-2-Cyclobutylcarbamoyl-pyrrolidin-1-yl)-2-oxo-ethoxy]-1-phenyl-1H-pyrazole-3-carbonyl}-amino)-propionyl]-piperazine-1-carboxylic acid propyl ester]"
126,390,"CCCOC(=O)N1CCN(C(=O)[C@H](C)NC(=O)c2cc(OCC(=O)N3CCC[C@H]3C(=O)NC3CCC3)n(-c3ccccc3)n2)CC1 [Example 208, 4-[(S)-2-({5-[2-((S)-2-Cyclobutylcarbamoyl-pyrrolidin-1-yl)-2-oxo-ethoxy]-1-phenyl-1H-pyrazole-3-carbonyl}-amino)-propionyl]-piperazine-1-carboxylic acid propyl ester]"

Compound,IC50 (human P2Y12 receptor) [nM],IC50 [1] [nM]
"CCCCOC(=O)N1CCN(C(=O)[C@H](CCCOC(C)=O)NC(=O)c2cc(OCC(=O)N3CCC[C@H]3C(=O)NC3CCC3)n(-c3ccccc3)n2)CC1 [Example 211, 4-[(S)-5-Acetoxy-2-({5-[2-((S)-2-cyclobutylcarbamoyl-pyrrolidin-1-yl)-2-oxo-ethoxy]-1-phenyl-1H-pyrazole-3-carbonyl}-amino)-pentanoyl]-piperazine-1-carboxylic acid butyl ester]",20,280
